Where two headings read alike, the source gives them in different places.
How the values were obtained:
[1] = target: T1, JAK1-JH2 domain (Homo sapiens, UniProt P23458); assay: Binding activity test for JH2 domain of JAK1 (Tb-antibody/tracer FRET)
T1 construct: JAK1-JH2 domain or TYK2-JH2 domain enzyme in assay buffer
In short: (§1)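 IC50 values (nM) come from TR-FRET readings taken after a 25°C incubation followed by overnight at 4°C. Each well held JH2 domain protein, Tb-antibody, tracer and test compound titrated in 11 threefold steps, with DMSO high and low controls.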

[2] = target: T2, TYK2-JH2 domain (Homo sapiens, UniProt P29597); assay: Binding activity test for JH2 domain of TYK2 (Tb-antibody/tracer FRET)
T2 construct: JAK1-JH2 domain or TYK2-JH2 domain enzyme in assay buffer
In short: as §1

[3] = tested on: Ba/F3-FL-TYK2-P760L cells; assay: Anti-proliferative assay in engineered Ba/F3 cells (Cell-Titer Glo, 72 h); type: cell-based; conditions: Mus musculus, concentration that causes 50% growth inhibition, read-out: Baf3-FL-T2P760L
In short: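 IC50 from luminescent ATP viability after 72 h compound exposure (37 °C, 5% CO2), % inhibition normalised to DMSO-treated cells minus medium blank. IL-3-free Ba/F3-FL-TYK2-P760L (Tel-JAK fusion) cells in 10% FBS RPMI-1640 received 9 three-fold doses, top 20 µM, 0.1% DMSO.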

[4] = JH2 domain enzyme; 60 min at 25°C, then 4°C overnight; read-out: JAK1 JH2 Binding IC50
[5] = JH2 domain enzyme; 60 min at 25°C, then 4°C overnight; read-out: TYK2 JH2 Binding IC50
[6] = ratio of JAK1 JH2 to TYK2 JH2 binding IC50
[7] = BaF3, 72 h, 72 h compound treatment

T2 sequence (P29597 589-875 limits assumed): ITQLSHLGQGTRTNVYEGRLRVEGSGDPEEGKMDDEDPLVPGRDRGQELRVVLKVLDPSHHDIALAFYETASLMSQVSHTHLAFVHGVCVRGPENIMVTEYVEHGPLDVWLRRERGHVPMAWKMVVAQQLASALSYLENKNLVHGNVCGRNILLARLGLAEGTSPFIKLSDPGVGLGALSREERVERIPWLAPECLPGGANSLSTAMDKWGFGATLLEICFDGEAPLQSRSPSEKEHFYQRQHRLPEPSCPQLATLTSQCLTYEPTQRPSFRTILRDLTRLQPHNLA
T1 sequence (P23458 583-855 limits assumed): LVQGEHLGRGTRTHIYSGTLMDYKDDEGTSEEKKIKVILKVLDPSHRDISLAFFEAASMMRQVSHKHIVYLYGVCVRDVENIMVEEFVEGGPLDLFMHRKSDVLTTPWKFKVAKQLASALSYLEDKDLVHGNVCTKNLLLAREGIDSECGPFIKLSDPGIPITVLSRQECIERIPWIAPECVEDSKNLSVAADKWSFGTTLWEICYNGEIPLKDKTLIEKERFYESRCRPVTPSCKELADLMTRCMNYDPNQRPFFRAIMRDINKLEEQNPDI

Row | Structure (SMILES) | IC50 [1, 4] | IC50 [2, 5] | JAK1/TYK2 selectivity [2, 6] | IC50 [3, 7] | IC50 ([3]; BaF3, 72 h compound treatment) | IC50 ([1]; read-out: JAK1 JH2 Binding IC50; JH2 domain enzyme; 60 min at 25°C, then 4°C overnight) | IC50 ([2]; read-out: TYK2 JH2 Binding IC50; JH2 domain enzyme; 60 min at 25°C, then 4°C overnight)
1 | [2H]C([2H])([2H])OC(=O)c1cnc(NC(=O)C2CC2)cc1Nc1cnn2ccc([C@H](OC([2H])([2H])[2H])C(F)(F)F)c(OC)c12 [Example 80, Methyl-d3 (S)-6-(cyclopropanecarboxamido)-4-((4-methoxy-5-(2,2,2-trifluoro-1-(methoxy-d3)ethyl)pyrazolo[1,5-a]pyridin-3-yl)amino)nicotinate] | 46 nM | 0.26 nM | 176.08 | 88.9 nM | – | – | –
2 | [2H]C([2H])([2H])OC(=O)c1cnc(NC(=O)C2CC2)cc1Nc1ncn2ncc(C(OC)C(F)(F)F)c2c1OC (centres unmarked) [Example 81, Methyl-d3 6-(cyclopropanecarboxamido)-4-((4-methoxy-3-(2,2,2-trifluoro-1-methoxyethyl)pyrazolo[1,5-c]pyrimidin-5-yl)amino)nicotinate] | > 298 nM | 4.02 nM | >74.25 | 306 nM | – | – | –
3 | CCOC(=O)c1cnc(NC(=O)C2CC2)cc1Nc1cnn2ccc([C@H](O)C(F)(F)F)c(OC)c12 [Example 83, (S)-ethyl 6-(cyclopropanecarboxamido)-4-((4-methoxy-5-(2,2,2-trifluoro-1-hydroxyethyl)pyrazolo[1,5-a]pyridin-3-yl)amino)nicotinate] | > 298 nM | 0.76 nM | >393.28 | 173 nM | – | – | –
4 | [2H]C([2H])([2H])NC(=O)c1cnc(NC(=O)C2CC2)cc1Nc1cnn2ccc(C(O)(C(F)(F)F)C(F)(F)F)c(OC)c12 [Example 84, 6-(Cyclopropanecarboxamido)-4-((5-(1,1,1,3,3,3-hexafluoro-2-hydroxypropan-2-yl)-4-methoxypyrazolo[1,5-a]pyridin-3-yl)amino)-N-(methyl-d3)nicotinamide] | > 298 nM | 4.24 nM | >70.42 | – | 634 nM | – | –
5 | COC(=O)c1nnc(NC(=O)C2CC2)cc1Nc1cccc(-c2ncn(C)n2)c1OC [Example 85, Methyl 6-(cyclopropanecarboxamido)-4-((2-methoxy-3-(1-methyl-1H-1,2,4-triazol-3-yl)phenyl)amino)pyridazine-3-carboxylate] | > 298 nM | 198 nM | >1.51 | > 5000 nM | – | – | –
6 | [2H]C([2H])([2H])NC(=O)c1nnc(NC(=O)C2CC2)cc1Nc1cccc(-c2ncn(C)n2)c1C(C)=O [Example 87, 4-((2-Acetyl-3-(1-methyl-1H-1,2,4-triazol-3-yl)phenyl)amino)-6-(cyclopropanecarboxamido)-N-(methyl-d3)pyridazine-3-carboxamide] | > 298 nM | > 298 nM | – | 1860 nM | – | – | –
7 | CCOC(=O)c1cnc(NC(=O)C2CC2)cc1Nc1cnn2ccc([C@H](OC)C(F)(F)F)c(OC)c12 [Example 88, Ethyl (S)-6-(cyclopropanecarboxamido)-4-((4-methoxy-5-(2,2,2-trifluoro-1-methoxyethyl)pyrazolo[1,5-a]pyridin-3-yl)amino)nicotinate] | > 298 nM | 1.7 nM | >175.18 | 719 nM | – | – | –
8 | [2H]C([2H])([2H])NC(=O)c1nnc(NC(=O)C2CC2)cc1Nc1cccc(-c2ncn(C)n2)c1C(C)O (centres unmarked) [Example 89, 6-(Cyclopropanecarboxamido)-4-((2-(1-hydroxyethyl)-3-(1-methyl-1H-1,2,4-triazol-3-yl)phenyl)amino)-N-(methyl-d3)pyridazine-3-carboxamide] | > 298 nM | > 298 nM | – | > 5000 nM | – | – | –
9 | COc1c([C@H](OC)C(F)(F)F)ccn2ncc(Nc3cc(NC(=O)C4CC4)ncc3C(O)C(F)(F)F)c12 (stereo partly drawn) [Example 90, N-(4-((4-methoxy-5-((S)-2,2,2-trifluoro-1-methoxyethyl)pyrazolo[1,5-a]pyridin-3-yl)amino)-5-(2,2,2-trifluoro-1-hydroxyethyl)pyridin-2-yl)cyclopropanecarboxamide] | > 298 nM | > 298 nM | – | > 5000 nM | – | – | –
10 | COc1c([C@H](OC)C(F)(F)F)ccn2ncc(Nc3cc(NC(=O)C4CC4)ncc3C(=O)CC#N)c12 [Example 91, (S)-N-(5-(2-cyanoacetyl)-4-((4-methoxy-5-(2,2,2-trifluoro-1-methoxyethyl)pyrazolo[1,5-a]pyridin-3-yl)amino)pyridin-2-yl)cyclopropanecarboxamide] | > 298 nM | 5.24 nM | >56.93 | 1380 nM | – | – | –
11 | COc1c([C@H](OC)C(F)(F)F)ccn2ncc(Nc3cc(NC(=O)C4CC4)ncc3C(O)CC#N)c12 (stereo partly drawn) [Example 92, N-(5-(2-cyano-1-hydroxyethyl)-4-((4-methoxy-5-((S)-2,2,2-trifluoro-1-methoxyethyl)pyrazolo[1,5-a]pyridin-3-yl)amino)pyridin-2-yl)cyclopropanecarboxamide] | 79.6 nM | 26.5 nM | 3.00 | 878 nM | – | – | –
12 | COC(=O)c1cnc(NC(=O)C2CC2)cc1Nc1cnn2ccc(C(C)C(F)(F)F)c(OC)c12 (centres unmarked) [Example 93, Methyl 6-(cyclopropanecarbonylamino)-4-[[4-methoxy-5-(2,2,2-trifluoro-1-methylethyl)pyrazolo[1,5-a]pyridin-3-yl]amino]pyridine-3-carboxylate] | 63.7 nM | 1.24 nM | 51.39 | 577 nM | – | – | –
13 | COCOc1cnc(NC(=O)C2CC2)cc1Nc1cnn2ccc([C@H](OC)C(F)(F)F)c(OC)c12 [Example 94, (S)-N-(4-((4-methoxy-5-(2,2,2-trifluoro-1-methoxyethyl)pyrazolo[1,5-a]pyridin-3-yl)amino)-5-(methoxymethoxy)pyridin-2-yl)cyclopropanecarboxamide] | 193 nM | 141 nM | 1.37 | – | 4630 nM | – | –
14 | COc1c([C@H](OC)C(F)(F)F)ccn2ncc(Nc3cc(NC(=O)C4CC4)ncc3OCC#N)c12 [Example 95, (S)-N-(5-(cyanomethoxy)-4-((4-methoxy-5-(2,2,2-trifluoro-1-methoxyethyl)pyrazolo[1,5-a]pyridin-3-yl)amino)pyridin-2-yl)cyclopropanecarboxamide] | > 298 nM | 68.3 nM | >4.37 | > 5000 nM | – | – | –
15 | COC(=O)c1c(Nc2nn(C)c3ccc(C(OC)C(F)(F)F)c(OC)c23)cc(NC(=O)C2CC2)nc1N (centres unmarked) [Example 96, Methyl 2-amino-6-(cyclopropanecarboxamido)-4-((4-methoxy-1-methyl-5-(2,2,2-trifluoro-1-methoxyethyl)-1H-indazol-3-yl)amino) nicotinate] | – | – | >3.19 | – | 2990 nM | > 298 nM | 93.6 nM
16 | COC(=O)c1cnc2cc1Nc1cc(cc(-c3ccn(C)n3)c1OC)CCOCc1cccc(n1)N2 [Example 105, Methyl 10-methoxy-11-(1-methyl-1H-pyrazol-3-yl)-16-oxa-2,4,8,22-tetraazatetracyclo[16.3.1.1^{3,7}.1^{9,13}]tetracosa-1(22),3,5,7(24),9(23),10,12,18,20-nonaene-6-carboxylate] | 232 nM | 1.21 nM | 191.94 | 66.8 nM | – | – | –
17 | COC(=O)c1cnc(NC(=O)C2CC2)cc1Nc1n[nH]c2ccc(C(OC)C(F)(F)F)c(OC)c12 (centres unmarked) [Example 113, Methyl 6-(cyclopropanecarboxamido)-4-((4-methoxy-5-(2,2,2-trifluoro-1-methoxyethyl)-1H-indazol-3-yl)amino)nicotinate] | 74.5 nM | 0.258 nM | 288.80 | > 1000 nM | – | – | –
18 | COC(=O)c1cnc(NC(=O)C2CC2)cc1Nc1nn(C)c2ccc(C(C)C(F)(F)F)c(OC)c12 (centres unmarked) [Example 123, Methyl 6-(cyclopropanecarboxamido)-4-((4-methoxy-1-methyl-5-(1,1,1-trifluoropropan-2-yl)-1H-indazol-3-yl)amino)nicotinate] | 174 nM | 0.37 nM | 470.33 | 88.3 nM | – | – | –
19 | [2H]C([2H])([2H])O[C@@H](c1ccc2c(c(Nc3cc(NC(=O)C4CC45CC5)ncc3C(=O)OC)nn2C)c1OC)C(F)(F)F (stereo partly drawn) [Example 136, Methyl 4-((4-methoxy-1-methyl-5-((S)-2,2,2-trifluoro-1-(methoxy-d3)ethyl)-1H-indazol-3-yl)amino)-6-(spiro[2.2]pentane-1-carboxamido)nicotinate] | 77.8 nM | 0.21 nM | 370.63 | 21.2 nM | – | – | –
20 | CCC(=O)c1cnc(NC(=O)C2CC2)cc1Nc1nn(C)c2ccc([C@H](O)C(F)(F)F)c(OC)c12 [Example 140, (S)-N-(4-((4-Methoxy-1-methyl-5-(2,2,2-trifluoro-1-hydroxyethyl)-1H-indazol-3-yl)amino)-5-propionylpyridin-2-yl)cyclopropanecarboxamide] | 4.36 nM | 0.061 nM | 71.43 | 0.463 nM | – | – | –

From EP4813463A2, “TYK2 INHIBITORS AND COMPOSITIONS AND METHODS THEREOF” (Lynk Pharmaceuticals Co. Ltd., priority 2023, dated 2024)
